Test results as given in patent publication US8518988B2, “Polymorph of the hydrochloride of the (4-hydroxycarbamoyl-phenyl)-carbamic acid (6-dimethylamino methyl-2-naphthalenyl) ester” (Chemi SPA, priority 2010, dated 2013).

Assays:
[1] = Comparative solubility in 0.9% sodium chloride solution (isotonic solution); assay type: physicochemical; conditions: 37° C.; for Solubility: 10 mg in 10 ml 0.9% sodium chloride solution, agitated 24 hours; for Relative solubility vs. form I: 0.9% sodium chloride solution, 24 hours
Experimental: As a matter of fact, a comparative experiment between form I of the compound (A) (monohydrate prepared as described in U.S. Pat. No. 7,329,689) and form II of compound (A), subject of the present invention, was carried out.
10 mg of compound (A) in crystalline form I were agitated in 10 ml of a 0.9% sodium chloride solution (isotonic solution) at 37° C. for 24 hours. The concentration of the product in liquid phase was measured at the end.
Table 1 indicates the obtained solubility data.

[2] = Stability test of crystalline form at 40° C., 75% humidity, analysed by PXRD; assay type: physicochemical; conditions: thin layer on Petri dish, samples after 2, 7 and 15 days
Experimental: FIG. 5 describes the profile of the stability diffractograms of ITF 2357 of form II at 40° C., 75% relative humidity at different times. In particular, the first diffractogram from the bottom is performed at time 0, the second diffractogram from the bottom is performed after 2 days, the third diffractogram from the bottom is performed after 7 days and the fourth diffractogram from the bottom is performed after 15 days.
In detail, a sample of form II of ITF 2357 was deposited in a thin layer having a thickness of about 0.5 cm on a Petri dish and placed in an environment with a constant humidity of 75%, at a constant temperature of 40° C. for two weeks. Samples were taken after 2, 7 and 15 days and analysed through Powder X Ray Diffraction (PXRD). The results of such experiments were summarised in FIG. 5, where the diffractograms obtained from the samples of the various collections were indicated overlapped.

| Compound | Solubility [1] | Relative solubility vs. form I [1] | Relative solubility vs. form I ([1]; listed as form II) | Stability of the crystalline form (PXRD) [2] |
| --- | --- | --- | --- | --- |
| CN(C)Cc1ccc2cc(OC(=O)Nc3ccc(C(=O)NO)cc3)ccc2c1.Cl [Form II, hydrochloride of the (4-hydroxycarbamoyl-phenyl)-carbamic acid (6-dimethylamino methyl-2-naphtalenyl) ester] | 0.226 mg/mL | 1.47 | 1.47 | no modifications of the crystalline form was observed |
| CN(C)Cc1ccc2cc(OC(=O)Nc3ccc(C(=O)NO)cc3)ccc2c1.Cl [Form I, hydrochloride of the (4-hydroxycarbamoyl-phenyl)-carbamic acid (6-dimethylamino methyl-2-naphtalenyl) ester, reference compound] | 0.154 mg/mL | 1.00 | – | – |
